Patent US20120015923A1, “USE OF ANDROGRAPHOLIDE COMPOUNDS FOR TREATING INFLAMMATION AND AIRWAY DISORDERS” (NATIONAL UNIVERSITY OF SINGAPORE, priority 2009, published 2012)

Test system: NF-κB signaling pathway in normal human bronchial epithelial cells
Assay: TNF-α-induced NF-κB activation in normal human bronchial epithelial cells (immunoblotting, TransAM p65 ELISA)
Format: cell-based
Conditions: 30 μM
Experimental: To determine the effects of andrograhpolide on OVA-specific immune responses in lymphocytes, thoracic lymph node cells were grown in bronchial epithelial bulletkit medium (Cambrex BioScience, Walkersvile, Md., USA), supplemented with bovine pituitary extract (2 ml), hydrocortisone (0.5 ml), recombinant human EGF (0.5 ml), epinephrine (0.5 ml), transferrin (0.5 ml), insulin (0.5 ml), retinoic acid (0.5 ml), triiodothyronine (0.5 ml), gentamycin sulfate (50 μg/ml), and amphotericin B (50 ng/ml). The cells were incubated in 5% CO2 incubator at 37° C., and subcultured at 80% to 85% confluency. Cells were exposed to 200 μg/ml OVA for 72 hours. Concanavalin A (Con A, 10 μug/ml) was used as a positive control. Supernatants from parallel triplicate cultures were analyzed for cytokine levels by ELISA. Normal human bronchial epithelial cells were cultured in optimized bronchial epithelial bulletkit medium with supplements (Lonza, Basel, Switzerland). Cells were pretreated with 30 μM andrographolide or vehicle (0.01% DMSO) 4 hours before stimulation with 10 ng/ml tumor necrosis factor (TNF)-α. Total and nuclear proteins, and mRNA were extracted from cells at specified time intervals.
Lung and cell culture nuclear proteins ([…]) were isolated. Lysates were incubated on ice for 30 min before centrifugation (18,000 g for 5 min). The supernatants were collected, and protein concentrations were determined using a BCA protein assay kit. 28 μl of the protein measured were mixed with 7 μl 5× sample buffer and boiled at 95° C. for 5 min. 10% SDS-PAGE gel was set as known in the art. The gel was placed in a Trans-Blot tank (Bio-Rad Laboratories, Hercules, Calif.). 30 μl of the sample mixtures and Pre-stained SDS Page Marker (Bio-Rad Laboratories, Hercules, Calif.) were loaded into respective wells and ran at 100V for 2 hours. The proteins were then transferred to a PVDF membrane using a semi-dry transblotter (ATTO Corp, Tokyo, Japan). The PVDF membrane was blocked with 5% non-fat milk in Tween-20 Tris buffered saline (TTBS) for 2 hours and probed with various primary antibodies in 1% non-fat milk in TTBS (1:2,000 for anti-rabbit antibodies; 1:5,000 for anti-mouse antibodies; 1:10,000 for β-actin) overnight at 4° C. The PVDF was then washed with TTBS for 10 times (2-3 min each), and incubated in HRP- or AP-conjugated anti-mouse or anti-rabbit antibodies for 1 hour. The membrane was again washed with TTBS. For HRP-conjugated antibody, 1 ml each of HRP substrate 1 and substrate 2 were added onto the membrane. For AP-conjugated antibody, 7.5 ml of AP substrates (300 μl AP 25×Buffer, 75 μl Reagent A, 75 μl Reagent B, 7.5 ml water) was added per gel. The data was then developed in the dark on hyperfilms using an ECL reagent. Immunoblots were probed with anti-p65, anti-phospho-p65 (Ser536), and anti-TATA binding protein (TBP, Abcam, Cambridge, UK).
Nuclear proteins were also analyzed for NF-κB DNA-binding activity using the TransAM p65 transcription factor assay kit (Active Motif, Carlsbad, Calif.).

[1] = 10 ng/ml TNF-α for 5, 15 and 30 minutes

SMILES | TNF-α-induced IκBα degradation [1] | TNF-α-induced p65 subunit of NF-κB phosphorylation [1] | TNF-α-induced phosphorylation of IKKβ [1] | IκB phosphorylation (10 ng/ml TNF-α) | TNF-α-induced p65 DNA-binding activity (TNF-α for 30 minutes) | TNF-α-induced p65 nuclear translocation (TNF-α for 30 minutes) | TNF-α-induced p65 DNA-binding (10 ng/ml TNF-α for 5 minutes) | TNF-α-induced p65 nuclear translocation (10 ng/ml TNF-α for 5 minutes)
C=C1CC[C@@H]2[C@](C)(CO)[C@H](O)CC[C@@]2(C)[C@@H]1C/C=C1/C(=O)OC[C@H]1O [Andrographolide] | blocked | blocked | blocked | inhibition | blocked | blocked |  | 
C=C1CCC2C(C)(CO)C(O)CCC2(C)C1C=CC1=CCOC1=O (centres unmarked) [DDAG, 14-Deoxy-11,12-didehydroandrographolide] |  |  |  |  |  |  | markedly abated | markedly abated
